Each structure is given as a SMILES string. Where two headings read alike, the source gives them in different places. Some results are limits rather than exact numbers.

The values that follow come from patent publication EP4595961A1, “SELEXIPAG FOR USE IN THE TREATMENT AND/OR PREVENTION OF ATHEROSCLEROSIS” (SORBONNE UNIVERSITE, priority 2024, dated 2025).

In assay [1] the test system is human aortic smooth muscle cells. Description: Internalisation of DiI-oxLDL by aortic smooth muscle cells (fluorescence microscopy and FACS). The class given is cell-based. The conditions noted are these: 1h pre-treatment, DiI-oxLDL 10 µg/mL 4 hours, read-out: concentration from which incorporation of oxLDL is inhibited.
For another assay, the system named is ABCG1. Description: ABCG1 gene expression by real-time RT-PCR in aortic smooth muscle cells. The class given is cell-based, human. The conditions noted are these: normalized with HPRT, n=1 or 2. The protocol: (§1) The cells, grown to confluence according to the supplier's instructions (Lonza), were serum-depleted, pre-treated for 1h with increasing concentrations of ACT-333679 (i.e. MRE-269), and incubated in the presence of 10ng/mL PDGF-BB for 24h for Figures 4 and 5, and 6h for Figure 6. The treated cells were then incubated during 4 hours with 10µg/mL of fluorescently labelled DiI-oxLDL (Figures 4 and 5) and their ability to internalise the oxLDL was analysed by fluorescence microscopy (Figure 4) and FACS (Figure 5). FACS allows precise quantification of the number of fluorescent cells (i.e. those that have incorporated fluorescent oxLDL) and the intensity of the incorporated fluorescence per cell (i.e. the quantity of incorporated oxLDL/cell). Nuclei were stained with 4'-6'diamidino-2-phenylindol (DAPI) for analysis by fluorescence microscopy (Figure 4) or cells were directly analysed by flow cytometry (Figure 5). A detailed description of the protocol and apparatus used is given in the art.
(§2) Regarding Figure 4, representative images of the analysis of 5 fields examined in two experiments (n=2). […]
(§3) The expression of genes encoding transporters involved in cholesterol efflux (ABCA1: ATP-binding cassette A1 and ABCG1: ATP-binding cassette subfamily G member 1) was measured by real-time RT-PCR. […]
Background: Real-time PCR tracks product formation cycle by cycle.

A further assay concerns ABCA1. Put plainly: ABCA1 gene expression by real-time RT-PCR in aortic smooth muscle cells. The class given is cell-based, human. The conditions noted are these: normalized with HPRT, n=1 or 2. On the procedure:
as §1, §2, §3

Assay [2] has as its system vascular smooth muscle cells-derived foam cells. Description: Radioisotopic cholesterol efflux assay ([3H]-cholesterol-loaded VSMCs). The class given is cell-based, human. The text has this: Primary cultures of aortic smooth muscle cells (AoSMC) obtained from a human diabetic and obese donor ([…]) were purchased from Lonza (D-AoSMC CloneticsTM). Cells were cultivated on 12-well plates at 50 000 cells/well in a growth medium composed of the Smooth Muscle Basal Medium (SmBM, Lonza) supplemented with 0.2% hEGF, 0.1% insulin, 0.2% hFGF-B, 5% Fetal Bovine Serum (FBS) and 0.1% gentamicin/amphotericin-B (SingleQuots, Lonza, concentrations not specified) according to Lonza's instructions. The foam phenotype was induced when cells reached a subconfluent density. During all the experiments, cells were maintained within an atmosphere enriched with 5% CO2 at 37°C and were used at passages ranging from 6 to 9. […]
Cholesterol efflux assay was performed as previously described by using [3H]-cholesterol-loaded VSMCs. […] Fractional cholesterol efflux, expressed as a percentage, was calculated as the amount of the radioactivity recovered in the cleared medium divided by the total radioactivity (radioactivity in the medium + radioactivity in the cells). Radioactivity in the cells was obtained after the lipid extraction in a mixture of hexane isopropanol (3:2 v/v) and was determined by liquid scintillation counting on a Wallac Trilux 1450 Microbeta scintillation counter (PerkinElmer, MA, USA). […]

The mark [3] stands for this setting: pre-treated 1h, then PDGF-BB 10 ng/mL 6h.

Turning to `CC(C)N(CCCCOCC(=O)O)c1cnc(-c2ccccc2)c(-c2ccccc2)n1` [MRE-269], the minimal effective concentration in assay [1] (Homo sapiens, basal incorporation) is not below 0.005 µM; in assay [1] (incorporation stimulated by PDGF-BB 10 ng/mL 24h), not below 0.005 µM. Also, in the assay with ABCG1 (setting [3]), the “Expression of PDGF-BB-inhibited ABCG1 gene” value is recorded as “partially restored”. Further, the “Expression of PDGF-BB-inhibited ABCA1 gene” value in the assay with ABCA1 (setting [3]) is given as “partially restored”. Besides, the Basal cholesterol efflux entry in assay [2] (MRE-269 100 nM alone, no rHDL, basal efflux about 2.6 %) is “not modified”. The same compound yielded a cholesterol efflux in assay [2] (MRE-269 100 nM together with rHDL 20 µg/mL, 24h, n=6) of 20.21%.

Regarding `CC(C)N(CCCCOCC(=O)NS(C)(=O)=O)c1cnc(-c2ccccc2)c(-c2ccccc2)n1` [Selexipag, 2-{4-[(5,6-diphenylpyrazin-2-yl)(isopropyl)amino]butoxy}-N-(methylsulfonyl)acetamide], in the assay with ABCG1 (basal, no PDGF-BB), the “basal expression of gene encoding ABCG1” value is given as “increased”. In addition, the “basal expression of gene encoding ABCA1” value in the assay on ABCA1 (basal, no PDGF-BB) is given as “increased”.
